Assay [1] concerns AP-1 induced transcriptional activity. Kind of assay: Cellular Transrepressional Assay (AP-1 luciferase reporter in A549 cells, PMA-activated). The settings on record: Homo sapiens, A549, 7 h, pAP-1-Luc, 10 ng/ml PMA, read-out: AP-1 (EC50, nM) (Cellular Transrepression Assay). Type of assay: cell-based. On the procedure: To measure the ability of test molecules to inhibit AP-1 induced transcriptional activity an A549 cell was utilized which was stably transfected with a plasmid containing 7×AP-1 DNA binding sites (pAP-1-Luc plasmid, Stratagene Co. La Jolla, Calif.) followed by the gene for luciferase. Cells were activated with 10 ng/ml of phorbol myristic acid (PMA) plus or minus test molecules for 7 hours. After 7 hours a luciferase reagent was added to measure luciferase enzymatic activity in the cell. After a 10 minute incubation of luciferase reagent with cells, luminescence was measured in a TopCount luminescence counter. Repression of AP-1 activity was calculated as the percentage decrease in the signal induced by PMA alone. Test molecules were analyzed in the concentration range from 0.1 nM to 40 μM. EC50s were determined by using standard curve fitting methods such as Excel fit (Microsoft Co.).

Assay [2] concerns the target T1, human glucocorticoid receptor (Homo sapiens, UniProt P04150).
T1 construct: purified human recombinant full-length glucocorticoid receptor (2 nM); purchased Invitrogen Part # 2893
T1 sequence (P04150 1-777): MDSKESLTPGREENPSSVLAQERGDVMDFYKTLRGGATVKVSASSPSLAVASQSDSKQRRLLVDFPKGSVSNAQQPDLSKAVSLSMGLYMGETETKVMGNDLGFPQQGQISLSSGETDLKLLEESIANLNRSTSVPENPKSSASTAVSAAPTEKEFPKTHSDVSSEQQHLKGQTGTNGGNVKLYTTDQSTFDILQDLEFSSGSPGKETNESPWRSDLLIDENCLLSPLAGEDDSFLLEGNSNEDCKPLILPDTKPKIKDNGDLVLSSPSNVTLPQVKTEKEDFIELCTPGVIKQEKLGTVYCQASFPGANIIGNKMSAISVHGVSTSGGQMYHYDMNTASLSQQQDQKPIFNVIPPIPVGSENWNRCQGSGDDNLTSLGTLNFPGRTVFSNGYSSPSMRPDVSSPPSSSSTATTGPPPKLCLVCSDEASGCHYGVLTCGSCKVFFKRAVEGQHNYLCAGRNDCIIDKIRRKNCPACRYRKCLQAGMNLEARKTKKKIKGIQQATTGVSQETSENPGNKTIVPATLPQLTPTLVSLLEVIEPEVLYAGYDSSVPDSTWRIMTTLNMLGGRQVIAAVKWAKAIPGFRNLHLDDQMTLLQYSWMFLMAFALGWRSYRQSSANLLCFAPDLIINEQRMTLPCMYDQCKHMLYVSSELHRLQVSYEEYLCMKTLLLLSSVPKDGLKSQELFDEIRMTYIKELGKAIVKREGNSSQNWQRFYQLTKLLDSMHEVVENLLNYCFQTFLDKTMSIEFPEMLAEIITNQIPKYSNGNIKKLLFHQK
Kind of assay: Glucocorticoid Receptor Binding Assay (I), fluorescence polarization competitor kit (Fluormone GS Red). To be noted: purified human recombinant full-length GR. On the procedure:
In order to assess the affinity of test compounds for the human glucocorticoid receptor, a commercially available kit was used (Glucocorticoid Receptor Competitor Assay Kit, Invitrogen Part # 2893). Briefly, purified human recombinant full-length glucocorticoid receptor (2 nM) was mixed with fluorescently labeled glucocorticoid (1 nM Fluormone GS Red) in the presence or absence of test compound. After two hour incubation at room temperature in the dark, the fluorescence polarization (FP) of the samples was measured. […] Test compounds were analyzed in the concentration range from 8.5E-05 μM to 5 μM.

Results on 23 compounds are retold here after patent US8198311B2, “Modulators of glucocorticoid receptor, AP-1, and/or NF-κB activity and use thereof” (Bristol-Myers Squibb Company, priority 2006, dated 2012).

SMILES strings stand for the structures.

`CC(C)CC(c1ccc2c(cnn2-c2ccc(F)cc2)c1)C(C)(C)CNC(=O)N[C@@H](C)CO` (stereo partly drawn) [Example 47, 1-(3-(1-(4-fluorophenyl)-1H-indazol-5-yl)-2,2,5-trimethylhexyl)-3-((S)-1-hydroxypropan-2-yl)urea]: the EC50 in assay [1] was found to be 204 nM. Moreover, the Ki in assay [2] turned out to be 1.3 nM.
Consider `CC(C)CC(c1ccc2c(cnn2-c2ccc(F)cc2)c1)C(C)(C)CNC(=O)NC(C)(C)c1ccccc1` (stereo not shown) [Example 48, 1-(3-(1-(4-fluorophenyl)-1H-indazol-5-yl)-2,2,5-trimethylhexyl)-3-(2-phenylpropan-2-yl)urea], for which the EC50 in assay [1] amounted to 42 nM. For the same compound, the Ki in assay [2] was 3.1 nM.
On to `CC(C)CC(c1ccc2c(cnn2-c2ccc(F)cc2)c1)C(C)(C)CNC(=O)Nc1ccccc1` (stereo not shown) [Example 50, 1-(3-(1-(4-fluorophenyl)-1H-indazol-5-yl)-2,2,5-trimethylhexyl)-3-phenylurea], for which the concentration for a half-maximal effect (EC50) in assay [1] came out at 223 nM. For the same compound, the inhibition constant Ki in assay [2] was 7.5 nM.
`CC(C)CC(c1ccc2c(cnn2-c2ccc(F)cc2)c1)C(C)(C)CNC(=O)NC(C)(C)CC(=O)O` (stereo not shown) [Example 51, 3-(3-(3-(1-(4-fluorophenyl)-1H-indazol-5-yl)-2,2,5-trimethylhexyl)ureido)-3-methylbutanoic acid]: in assay [1], the EC50 was 624 nM. Further, the Ki in assay [2] came out at 3 nM.
`Cc1ccc(C(C)(C)NC(=O)NCC(C)(C)C(CC(C)C)c2ccc3c(cnn3-c3ccc(F)cc3)c2)c(C)n1` (stereo not shown) [Example 52, 1-(2-(2,6-dimethylpyridin-3-yl)propan-2-yl)-3-(3-(1-(4-fluorophenyl)-1H-indazol-5-yl)-2,2,5-trimethylhexyl)urea]: the EC50 in assay [1] stood at 772 nM. In addition, the Ki in assay [2] was determined as 2.3 nM.
Regarding `Cc1cc(C(C)(C)NC(=O)NCC(C)(C)C(CC(C)C)c2ccc3c(cnn3-c3ccc(F)cc3)c2)ccn1` (stereo not shown) [Example 53, 1-(3-(1-(4-fluorophenyl)-1H-indazol-5-yl)-2,2,5-trimethylhexyl)-3-(2-(2-methylpyridin-4-yl)propan-2-yl)urea], in assay [1], the EC50 is 306 nM. In addition, the Ki in assay [2] turned out to be 1.8 nM.
For `CC(C)CC(c1ccc2c(cnn2-c2ccc(F)cc2)c1)C(C)(C)CNC(=O)NC(C)(C)Cc1ccc(F)cc1` (stereo not shown) [Example 54, 1-(3-(1-(4-fluorophenyl)-1H-indazol-5-yl)-2,2,5-trimethylhexyl)-3-(1-(4-fluorophenyl)-2-methylpropan-2-yl)urea], in that order: 285 nM and 22 nM.
Regarding `CC(C)CC(c1ccc2c(cnn2-c2ccc(F)cc2)c1)C(C)(C)CNC(=O)N(C)C` (stereo not shown) [Example 55, 3-(3-(1-(4-fluorophenyl)-1H-indazol-5-yl)-2,2,5-trimethylhexyl)-1,1-dimethylurea], the EC50 in assay [1] is 698 nM. In addition, the Ki in assay [2] amounted to 1.4 nM.
For the compound `CC(C)CC(c1ccc2c(cnn2-c2ccc(F)cc2)c1)C(C)(C)CNC(=O)NC(C)(C)C(=O)Nc1ccccc1` (stereo not shown) [Example 56, 2-(3-(3-(1-(4-fluorophenyl)-1H-indazol-5-yl)-2,2,5-trimethylhexyl)ureido)-2-methyl-N-phenylpropanamide], the EC50 in assay [1] is 80 nM. In assay [2], the inhibition constant Ki turned out to be 6.1 nM.
For the compound `CC(C)CC(c1ccc2c(cnn2-c2ccc(F)cc2)c1)C(C)(C)CNC(=O)OCC(C)(C)C` (stereo not shown) [Example 62, neopentyl 3-(1-(4-fluorophenyl)-1H-indazol-5-yl)-2,2,5-trimethylhexylcarbamate], the EC50 in assay [1] is over 10000 nM. The Ki in assay [2] was determined as 11 nM.
Consider `CC(C)CC(c1ccc2c(cnn2-c2ccc(F)cc2)c1)C(C)(C)CNS(=O)(=O)NC(C)(C)C` (stereo not shown) [Example 63], for which, in assay [1], the EC50 was over 10000 nM. The Ki in assay [2] was 4.3 nM.
`CC(C)CC(c1ccc2c(cnn2-c2ccc(F)cc2)c1)C(C)(C)CNC(=O)NC(C)(C)c1ccnc(C(C)(C)C)c1` (stereo not shown) [Example 64, 1-(2-(2-tert-butylpyridin-4-yl)propan-2-yl)-3-(3-(1-(4-fluorophenyl)-1H-indazol-5-yl)-2,2,5-trimethylhexyl)urea]: the half-maximal effective concentration (EC50) in assay [1] is over 10000 nM. Moreover, the Ki in assay [2] was 17 nM.
The like results for `CC(C)CC(c1ccc2c(cnn2-c2ccc(F)cc2)c1)C(C)(C)CNC(=O)CC(C)(C)C` (stereo not shown) [Example 66, N-(3-(1-(4-fluorophenyl)-1H-indazol-5-yl)-2,2,5-trimethylhexyl)-3,3-dimethylbutanamide] were, in that order, 177 nM and 3 nM.
For the compound `CC(C)CC(c1ccc2c(cnn2-c2ccc(F)cc2)c1)C(C)(C)CNC(=O)C(=O)C(C)(C)C` (stereo not shown) [Example 67, N-(3-(1-(4-fluorophenyl)-1H-indazol-5-yl)-2,2,5-trimethylhexyl)-3,3-dimethyl-2-oxobutanamide], in assay [1], the EC50 worked out at 164 nM. Further, the inhibitory constant (Ki) in assay [2] is 5.6 nM.
For the compound `CC(C)CC(c1ccc2c(cnn2-c2ccc(F)cc2)c1)C(C)(C)CNC(=O)CC(C)(C)c1ccc(Cl)cc1` (stereo not shown) [Example 68, 3-(4-chlorophenyl)-N-(3-(1-(4-fluorophenyl)-1H-indazol-5-yl)-2,2,5-trimethylhexyl)-3-methylbutanamide], the EC50 in assay [1] was 271 nM. The Ki in assay [2] came to 8.1 nM.
Turning to `CC(C)CC(c1ccc2[nH]ncc2c1)C(C)(C)CNC(=O)NC(C)(C)C` (stereo not shown) [Example 70, 1-(3-(1H-indazol-5-yl)-2,2,5-trimethylhexyl)-3-tert-butylurea], the EC50 in assay [1] is over 10000 nM. In assay [2], the Ki came to 44 nM.
Regarding `CC(C)CC(c1ccc2c(cnn2-c2ccc(F)cc2)c1)C(C)(C)CNC(=O)N[C@H]1CCc2ccccc21` (stereo partly drawn) [Example 71A, 1-((S)-2,3-dihydro-1H-inden-1-yl)-3-(3-(1-(4-fluorophenyl)-1H-indazol-5-yl)-2,2,5-trimethylhexyl)urea], the EC50 in assay [1] came to 194 nM. Also, the Ki in assay [2] was 5.8 nM.
Consider `CC(C)CC(c1ccc2c(cnn2-c2ccc(F)cc2)c1)C(C)(C)CNC(=O)N[C@@H]1CCc2ccccc21` (stereo partly drawn) [Example 71B, 1-((R)-2,3-dihydro-1H-inden-1-yl)-3-(3-(1-(4-fluorophenyl)-1H-indazol-5-yl)-2,2,5-trimethylhexyl)urea], for which, in assay [1], the half-maximal effective concentration (EC50) was found to be 511 nM. For the same compound, the inhibition constant Ki in assay [2] came out at 6.5 nM.
For `CC(C)CC(c1ccc2c(cnn2-c2ccc(F)cc2)c1)C(C)(C)CNC(=O)NC(c1ccccc1)c1ccccc1` (stereo not shown) [Example 73, 1-benzhydryl-3-(3-(1-(4-fluorophenyl)-1H-indazol-5-yl)-2,2,5-trimethylhexyl)urea], in that order: 107 nM and 13 nM.
Consider `CC(C)CC(c1ccc2c(cnn2-c2ccc(F)cc2)c1)C(C)(C)CNC(=O)NC1CCC(C(C)(C)C)CC1` (stereo not shown) [Example 74, 1-(4-tert-butylcyclohexyl)-3-(3-(1-(4-fluorophenyl)-1H-indazol-5-yl)-2,2,5-trimethylhexyl)urea], for which the 50% effective concentration (EC50) in assay [1] is over 10000 nM. Also, the inhibitory constant (Ki) in assay [2] came to 26 nM.
For `CC(C)CC(c1ccc2c(cnn2-c2ccc(F)cc2)c1)C(C)(C)CNC(=O)N[C@H](C)c1cccc2ccccc12` (stereo partly drawn) [Example 75, 1-(3-(1-(4-fluorophenyl)-1H-indazol-5-yl)-2,2,5-trimethylhexyl)-3-((R)-1-(naphthalene-1-yl)ethyl)urea], the concentration giving a half-maximal response (EC50) in assay [1] was 628 nM. Besides, the Ki in assay [2] was found to be 8.9 nM.
Regarding `CC(C)CC(c1ccc2c(cnn2-c2ccc(F)cc2)c1)C(C)(C)CNC(=O)N[C@@H](C)c1cccc2ccccc12` (stereo partly drawn) [Example 76, 1-(3-(1-(4-fluorophenyl)-1H-indazol-5-yl)-2,2,5-trimethylhexyl)-3-((S)-1-(naphthalene-1-yl)ethyl)urea], the EC50 in assay [1] is over 10000 nM. Moreover, the Ki in assay [2] worked out at 8.7 nM.
For `CC(C)CC(c1ccc2c(cnn2-c2ccc(F)cc2)c1)C(C)(C)CNC(=O)N[C@@H](C)C(C)(C)C` (stereo partly drawn) [Example 77, 1-((S)-3,3-dimethylbutan-2-yl)-3-(3-(1-(4-fluorophenyl)-1H-indazol-5-yl)-2,2,5-trimethylhexyl)urea], in that order: 143 nM and 7.4 nM.
